Several values for one entry are separate records, joined by “and”; a condition that tells them apart may be missing. Identical values can stand only once. Inconclusive results and toxic doses are left out. How the source made its calls: active means survival T/C of 150% or more; inactive means T/C below 125% in these data. Numbered stars: 1 amine (or outer) side, 2 acyl side, 3 side chain; on linkers, the order of the positions; unused ones are H or OH. Peptide text beside a SMILES is read from it. CO = O=C([*:1])[*:2]
Tested on: P388 leukemia ip, CD2F1 mice, survival T/C
Test: NCI In Vivo Anticancer Drug Screen. Data for tumor model P388 Leukemia (intraperitoneal) in CD2F1 (CDF1) mice
Conditions: endpoint: median survival time, higher = longer survival
Procedure, shortened: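 Mice carrying the transplanted tumor received test compound or vehicle. Survival was recorded in each group, and the value is the treated-group measurement divided by that of the vehicle-treated control group.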

[1] = dose: 6.25 mg/kg/injection, schedule: Q01DX009 (ip), vehicle: Klucel (hydroxypropylcellulose) (HPC)
[2] = dose: 12.5 mg/kg/injection, schedule: Q01DX009 (ip), vehicle: Klucel (hydroxypropylcellulose) (HPC)
[3] = dose: 25.0 mg/kg/injection, schedule: Q01DX009 (ip), vehicle: Klucel (hydroxypropylcellulose) (HPC)
[4] = dose: 50.0 mg/kg/injection, schedule: Q01DX009 (ip), vehicle: Klucel (hydroxypropylcellulose) (HPC)
[5] = dose: 50.0 mg/kg/injection, schedule: Q01DX009 (ip), vehicle: saline with Tween-80
[6] = dose: 100.0 mg/kg/injection, schedule: Q01DX009 (ip), vehicle: Klucel (hydroxypropylcellulose) (HPC)
[7] = dose: 100.0 mg/kg/injection, schedule: Q04DX003 (ip), vehicle: Klucel (hydroxypropylcellulose) (HPC)
[8] = dose: 200.0 mg/kg/injection, schedule: Q01DX009 (ip), vehicle: saline with Tween-80
[9] = dose: 100.0 mg/kg/injection, schedule: Q01DX009 (ip), vehicle: saline with Tween-80
[10] = dose: 60.0 mg/kg/injection, schedule: Q01DX005 (ip), vehicle: saline with Tween-80
[11] = dose: 120.0 mg/kg/injection, schedule: Q01DX005 (ip), vehicle: saline with Tween-80
[12] = dose: 50.0 mg/kg/injection, schedule: Q01DX005 (ip), vehicle: Klucel (hydroxypropylcellulose) (HPC)
[13] = dose: 12.5 mg/kg/injection, schedule: Q01DX005 (ip), vehicle: Klucel (hydroxypropylcellulose) (HPC)
[14] = dose: 25.0 mg/kg/injection, schedule: Q01DX005 (ip), vehicle: Klucel (hydroxypropylcellulose) (HPC)

Measured: T/C

NC(CSC(c1ccccc1)(c1ccccc1)c1ccccc1)C(=O)O (centres undefined)
active: [3] 163 % of control | dose: 25.0 mg/kg/injection, schedule: Q01DX009 (ip), vehicle: water 168 % of control | dose: 40.0 mg/kg/injection, schedule: Q01DX009 (ip), vehicle: water 168 % of control and 186 % of control | [4] 192 % of control | dose: 50.0 mg/kg/injection, schedule: Q01DX009 (ip), vehicle: water 159 % of control and 163 % of control and 183 % of control | dose: 66.0 mg/kg/injection, schedule: Q04DX003 (ip), vehicle: Klucel (hydroxypropylcellulose) (HPC) 225 % of control | dose: 100.0 mg/kg/injection, schedule: Q01DX009 (oral), vehicle: saline with Tween-80 153 % of control | [7] 175 % of control | [8] 167 % of control and 175 % of control
180 % of control [middle of 5 runs]: [5]
inactive: dose: 1.56 mg/kg/injection, schedule: Q01DX009 (ip), vehicle: saline with Tween-80 108 % of control | dose: 3.12 mg/kg/injection, schedule: Q01DX009 (ip), vehicle: Klucel (hydroxypropylcellulose) (HPC) 86 % of control | [1] 121 % of control and 90 % of control | dose: 6.25 mg/kg/injection, schedule: Q01DX009 (ip), vehicle: saline with Tween-80 119 % of control | dose: 6.25 mg/kg/injection, schedule: Q01DX009 (ip), vehicle: water 110 % of control and 118 % of control | [2] 92 % of control | dose: 12.5 mg/kg/injection, schedule: Q01DX009 (ip), vehicle: water 118 % of control | dose: 20.0 mg/kg/injection, schedule: Q01DX001 (ip), vehicle: water 104 % of control | dose: 25.0 mg/kg/injection, schedule: Q01DX009 (oral), vehicle: saline with Tween-80 123 % of control | dose: 40.0 mg/kg/injection, schedule: Q01DX001 (ip), vehicle: water 111 % of control | dose: 50.0 mg/kg/injection, schedule: Q01DX009 (oral), vehicle: saline with Tween-80 119 % of control | dose: 80.0 mg/kg/injection, schedule: Q01DX001 (ip), vehicle: water 111 % of control | [6] 100 % of control

Nc1ccc(Br)cc1[N+](=O)[O-]
inactive: [5] 101 % of control | [9] 107 % of control | [8] 100 % of control | dose: 400.0 mg/kg/injection, schedule: Q01DX009 (ip), vehicle: saline with Tween-80 117 % of control

CCOC(=O)Nc1c(CCO)n[nH]c1C
inactive: dose: 50.0 mg/kg/injection, schedule: Q01DX005 (ip), vehicle: saline with Tween-80 108 % of control | dose: 100.0 mg/kg/injection, schedule: Q01DX005 (ip), vehicle: saline with Tween-80 101 % of control | dose: 200.0 mg/kg/injection, schedule: Q01DX005 (ip), vehicle: saline with Tween-80 97 % of control

Cc1ccc(-n2c(CSc3ccc(Cl)cc3)nnc2SCc2nc3ccccc3[nH]2)cc1
inactive: dose: 15.0 mg/kg/injection, schedule: Q01DX005 (ip), vehicle: saline with Tween-80 92 % of control | dose: 30.0 mg/kg/injection, schedule: Q01DX005 (ip), vehicle: saline with Tween-80 102 % of control | [10] 96 % of control and 98 % of control

O=C(c1ccccc1)c1c(-c2ccccc2)c(C(=O)c2ccccc2)n2ccccc12
inactive: [4] 108 % of control | [6] 105 % of control | dose: 200.0 mg/kg/injection, schedule: Q01DX009 (ip), vehicle: Klucel (hydroxypropylcellulose) (HPC) 93 % of control

CC(C)CCC[C@@H](C)[C@H]1CC[C@H]2[C@@H]3CCC(=O)[C@](C)(CCC(=O)O)[C@H]3CC[C@]12C
inactive: [1] 96 % of control | [2] 96 % of control | [3] 92 % of control | [4] 87 % of control

COc1ccc2nc(C)cc(N/N=C/c3cccc(C)n3)c2c1
inactive: [2] 99 % of control and 104 % of control | [3] 99 % of control and 105 % of control | [4] 113 % of control and 122 % of control

Nc1cc2c(cn1)[nH]c1ccccc12
inactive: dose: 12.5 mg/kg/injection, schedule: Q01DX009 (ip), vehicle: other 108 % of control | dose: 25.0 mg/kg/injection, schedule: Q01DX009 (ip), vehicle: other 101 % of control | dose: 50.0 mg/kg/injection, schedule: Q01DX009 (ip), vehicle: other 108 % of control | [10] 97 % of control | dose: 100.0 mg/kg/injection, schedule: Q01DX009 (ip), vehicle: other 106 % of control | [11] 106 % of control

CC(C)C(NC(=O)C(CCCN=C(N)N)NC(=O)NC(Cc1ccccc1)C(=O)O)C(=O)NC(C=O)Cc1ccccc1 (stereo not drawn) ({Phe-CO}-Arg-Val-Phe-aldehyde; configuration not given here)
inactive: dose: 8.25 mg/kg/injection, schedule: Q01DX005 (ip), vehicle: Klucel (hydroxypropylcellulose) (HPC) 95 % of control | dose: 8.75 mg/kg/injection, schedule: Q01DX005 (ip), vehicle: Klucel (hydroxypropylcellulose) (HPC) 99 % of control | dose: 16.5 mg/kg/injection, schedule: Q01DX005 (ip), vehicle: Klucel (hydroxypropylcellulose) (HPC) 92 % of control | dose: 17.5 mg/kg/injection, schedule: Q01DX005 (ip), vehicle: Klucel (hydroxypropylcellulose) (HPC) 99 % of control | dose: 33.0 mg/kg/injection, schedule: Q01DX005 (ip), vehicle: Klucel (hydroxypropylcellulose) (HPC) 93 % of control | dose: 35.0 mg/kg/injection, schedule: Q01DX005 (ip), vehicle: Klucel (hydroxypropylcellulose) (HPC) 93 % of control | dose: 66.0 mg/kg/injection, schedule: Q01DX005 (ip), vehicle: Klucel (hydroxypropylcellulose) (HPC) 92 % of control | dose: 70.0 mg/kg/injection, schedule: Q01DX005 (ip), vehicle: Klucel (hydroxypropylcellulose) (HPC) 87 % of control

NC(=O)Nc1cc(NC(N)=O)cc(N(CCCl)CCCl)c1
active: dose: 17.8 mg/kg/injection, schedule: Q04DX003 (ip), vehicle: water 177 % of control | dose: 20.0 mg/kg/injection, schedule: Q04DX003 (ip), vehicle: water 173 % of control | dose: 26.6 mg/kg/injection, schedule: Q04DX003 (ip), vehicle: water 206 % of control | dose: 40.0 mg/kg/injection, schedule: Q04DX003 (ip), vehicle: water 194 % of control and 215 % of control

CC1C2COCC2CC2OC21 (centres undefined)
inactive: dose: 6.25 mg/kg/injection, schedule: Q01DX001 (ip), vehicle: saline with Tween-80 109 % of control | dose: 12.5 mg/kg/injection, schedule: Q01DX001 (ip), vehicle: saline with Tween-80 100 % of control | dose: 25.0 mg/kg/injection, schedule: Q01DX001 (ip), vehicle: saline with Tween-80 104 % of control

CCCn1c2ccccc2c2ccccc21
inactive: [7] 104 % of control | dose: 200.0 mg/kg/injection, schedule: Q04DX003 (ip), vehicle: Klucel (hydroxypropylcellulose) (HPC) 104 % of control | dose: 400.0 mg/kg/injection, schedule: Q04DX003 (ip), vehicle: Klucel (hydroxypropylcellulose) (HPC) 100 % of control

O=C1Cc2[nH]ccc2C(=O)O1
inactive: dose: 100.0 mg/kg/injection, schedule: Q01DX001 (ip), vehicle: saline with Tween-80 99 % of control | dose: 200.0 mg/kg/injection, schedule: Q01DX001 (ip), vehicle: saline with Tween-80 90 % of control | dose: 400.0 mg/kg/injection, schedule: Q01DX001 (ip), vehicle: saline with Tween-80 107 % of control

C1CNC(SCC2CC3CC2C2OC32)=N1 (centres undefined)
inactive: [12] 98 % of control | dose: 100.0 mg/kg/injection, schedule: Q01DX005 (ip), vehicle: Klucel (hydroxypropylcellulose) (HPC) 101 % of control

CC(C)(Oc1ccc(C(=O)c2ccc(Cl)cc2)cc1)C(=O)O
inactive: [5] 93 % of control | [9] 102 % of control | [8] 111 % of control

Cc1ccc2c3c1CCCN3CCC2
inactive: dose: 50.0 mg/kg/injection, schedule: Q04DX003 (ip), vehicle: saline 112 % of control | dose: 100.0 mg/kg/injection, schedule: Q04DX003 (ip), vehicle: saline 112 % of control

CCOc1ccc(C(/C(Cl)=N/O)C(Cl)(Cl)Cl)cc1 (centres undefined)
inactive: [13] 96 % of control | [14] 91 % of control | [12] 100 % of control

Cc1nc2nc(Cl)c(Cl)nc2[nH]1
inactive: dose: 25.0 mg/kg/injection, schedule: Q01DX009 (ip), vehicle: saline with Tween-80 100 % of control | [5] 104 % of control | [9] 104 % of control

CCN(CC)c1ccc(C(=N)c2ccc(N(C)C)cc2)cc1
inactive: [13] 99 % of control | [14] 99 % of control | [12] 90 % of control and 92 % of control

Nc1ncncc1C(C1=C(O)COC1=O)C1=C(O)COC1=O
inactive: [10] 98 % of control | [11] 100 % of control | dose: 240.0 mg/kg/injection, schedule: Q01DX005 (ip), vehicle: saline with Tween-80 98 % of control

Source: PubChem BioAssay AID330 (DTP/NCI, 2004)
